For data set [1] the following is noted: water.
The subject of data set [2] is L1210 mouse leukemia cells. In words: Effect in prolonging the life of mouse with cancer (L1210), Test Example 1. To be noted: i.p. once, 30 days observation. It is filed as in vivo, DBA/2 mice. The protocol:
To DBA/2 mice, L1210 mouse leukemia cells were inoculated into the abdominal cavity of each mouse used in the test. The test drugs were intraperitoneally administered once (e.g. after 24 hours of inoculation). […] The ratio (T/C %) of the survival time of a treated group (administered with a certain drug) to the survival time of a control group (administered with only physiological saline) was obtained and is shown in table VI with the average number of survival days for mice of the control group being evaluated as 100. The test drugs were aqueous suspensions obtained by adding small amounts of surfactants (e.g. tween-80) to the less soluble test compounds in water.

Another data set has as its system S180 sarcoma cells. In words: Effect in prolonging the life of mouse with cancer (S180), Test Example 2. As to conditions: i.p. once, 30 days observation. The format is in vivo, DBA/2 mice. The method, then: To DBA/2 mice, S180 sarcoma cells were intraperitoneally inoculated with approximately 1×10^6 cells/mouse. The test drugs were intraperitoneally administered once (e.g. after 24 hours of inoculation). […] The ratio (T/C %) of survival time of test and control animals was obtained and is shown in table V with the average number of survival days for mice of the control group to which a physiological saline was administered being evaluated as 100. The test drugs were aqueous suspensions obtained by adding small amount of surfactants (e.g. tween-80) to the less soluble test compounds in water.

The test system of data set [3] is Sarcoma 180 and Leukemia L1210. To be noted: reported in 1969; cited from earlier work.
The mark [4] stands for this setting: L1210 S180 printed, one value only, 8 mg/kg.

Compound `N[C@@H]1COCO[C@@H]1c1ccccc1.N[C@@H]1COCO[C@@H]1c1ccccc1.[I][Pt][I]` returned a Solubility in data set [1] of 0.02 mg/mL.
The same measure, in the same setting: to `N[C@@H]1COCO[C@@H]1c1ccccc1.N[C@@H]1COCO[C@@H]1c1ccccc1.[Cl][Pt][Cl]` belongs 0.06 mg/mL; to `NCc1ccc(O)cc1.NCc1ccc(O)cc1.[I][Pt][I]`, 0.8 mg/mL.
The same measure, in the same setting: to `NCc1ccc(O)cc1.NCc1ccc(O)cc1.[Cl][Pt][Cl]` belongs 1.5 mg/mL; to `NCc1ccccc1CN.[I][Pt][I]`, 0.01 mg/mL; to `NCc1ccccc1CN.[Cl][Pt][Cl]`, 0.02 mg/mL.
The same measure, in the same setting: to `NCc1cc(C(=O)O)c(C(=O)O)cc1CN.[I][Pt][I]` belongs 1.1 mg/mL; to `NCc1cc(C(=O)O)c(C(=O)O)cc1CN.[Cl][Pt][Cl]`, 2.4 mg/mL.
Turning to `NCc1ccc(Cl)cc1.NCc1ccc(Cl)cc1.[I][Pt][I]`, the “T/C (%) of ST (ratio of survival time of test and control animals)” value in data set [2] (L1210, 10 mg/kg) is more than 182%; in the data set with S180 sarcoma cells (10 mg/kg), more than 140%.
Take `NCc1ccccc1.NCc1ccccc1.[I][Pt][I]`: in data set [2] (setting [4]), the “T/C (%) of ST (ratio of survival time of test and control animals)” value is reported as more than 201%.
Same read-out and setting: as for `NCc1ccccc1.NCc1ccccc1.[Cl][Pt][Cl]`, the figure is more than 201%.
Take `NCc1ccccc1Br.NCc1ccccc1Br.[I][Pt][I]`: the “T/C (%) of ST (ratio of survival time of test and control animals)” value in data set [2] (L1210, 10 mg/kg) was more than 175%; in the data set on S180 sarcoma cells (10 mg/kg) it was more than 180%.
On the same counts, the results for `NCc1ccccc1Br.NCc1ccccc1Br.[Cl][Pt][Cl]` are more than 180% and more than 184%.
In the case of `NCc1ccc(Br)cc1.NCc1ccc(Br)cc1.[I][Pt][I]`, the “T/C (%) of ST (ratio of survival time of test and control animals)” value is listed as more than 150% in data set [2] (L1210, 17.5 mg/kg) and more than 158% in the data set on S180 sarcoma cells (17.5 mg/kg).
Turning to `NCc1ccc(Br)cc1.NCc1ccc(Br)cc1.[Cl][Pt][Cl]`, the “T/C (%) of ST (ratio of survival time of test and control animals)” value in data set [2] (L1210, 12 mg/kg) was more than 205%; in the data set with S180 sarcoma cells (12 mg/kg), more than 198%.
Take `NCc1ccc(F)cc1.NCc1ccc(F)cc1.[I][Pt][I]` [I 11]: the “T/C (%) of ST (ratio of survival time of test and control animals)” value in data set [2] (L1210, 13.5 mg/kg) is listed as more than 161%; in the data set with S180 sarcoma cells (13.5 mg/kg), more than 184%.
On the same counts, the results for `NCc1ccc(F)cc1.NCc1ccc(F)cc1.[Cl][Pt][Cl]` [I 12] are more than 177% and more than 175%.
On to `NCc1ccc(Cl)c(O)c1.NCc1ccc(Cl)c(O)c1.[I][Pt][I]` [I 20], for which the “T/C (%) of ST (ratio of survival time of test and control animals)” value in data set [2] (L1210, 15 mg/kg) is reported as more than 212%; in the data set with S180 sarcoma cells (15 mg/kg), more than 227%.
In the same order, the values of `NCc1ccc(Cl)c(O)c1.NCc1ccc(Cl)c(O)c1.[Cl][Pt][Cl]` [I 21] are more than 238% and more than 251%.
As for `C[C@@H](N)c1ccccc1.C[C@@H](N)c1ccccc1.[I][Pt][I]` [I 28], the “T/C (%) of ST (ratio of survival time of test and control animals)” value is reported as more than 220% in data set [2] (L1210, 17.5 mg/kg) and more than 215% with S180 sarcoma cells (17.5 mg/kg).
On the same counts, the results for `C[C@@H](N)c1ccccc1.C[C@@H](N)c1ccccc1.[Cl][Pt][Cl]` [I 29] are more than 246% and more than 250%.
For the compound `C[C@H](N)c1ccccc1.C[C@H](N)c1ccccc1.[I][Pt][I]` [I 30], the “T/C (%) of ST (ratio of survival time of test and control animals)” value in data set [2] (L1210, 17.5 mg/kg) is given as more than 226%; with S180 sarcoma cells (17.5 mg/kg) it was more than 230%.
In the same order, the values of `C[C@H](N)c1ccccc1.C[C@H](N)c1ccccc1.[Cl][Pt][Cl]` [I 31] are more than 260% and more than 245%.
As to `NCc1ccc(C(=O)O)cc1.NCc1ccc(C(=O)O)cc1.[I][Pt][I]` [I 36], the “T/C (%) of ST (ratio of survival time of test and control animals)” value is more than 243% in data set [2] (L1210, 10 mg/kg) and more than 230% with S180 sarcoma cells (10 mg/kg).
For the compound `NCc1ccc(C(=O)O)cc1.NCc1ccc(C(=O)O)cc1.[Cl][Pt][Cl]` [I 37], the “T/C (%) of ST (ratio of survival time of test and control animals)” value was more than 250% in data set [2] (L1210, 10 mg/kg) and more than 255% in the data set on S180 sarcoma cells (10 mg/kg).
In the case of `NCc1ccco1.NCc1ccco1.[I][Pt][I]` [I 42], the “T/C (%) of ST (ratio of survival time of test and control animals)” value is more than 200% in data set [2] (L1210, 17.5 mg/kg) and more than 200% in the data set with S180 sarcoma cells (17.5 mg/kg).
Regarding `NCc1ccco1.NCc1ccco1.[Cl][Pt][Cl]` [I 43], the “T/C (%) of ST (ratio of survival time of test and control animals)” value in data set [2] (L1210, 12 mg/kg) is listed as more than 225%; with S180 sarcoma cells (12 mg/kg), more than 230%.
Turning to `NCc1ccc(CO)o1.NCc1ccc(CO)o1.[I][Pt][I]` [I 44], the “T/C (%) of ST (ratio of survival time of test and control animals)” value in data set [2] (L1210, 17.5 mg/kg) is on record as more than 215%; with S180 sarcoma cells (17.5 mg/kg), more than 220%.
Consider `NCc1ccc(CO)o1.NCc1ccc(CO)o1.[Cl][Pt][Cl]` [I 45], for which the “T/C (%) of ST (ratio of survival time of test and control animals)” value in data set [2] (L1210, 12 mg/kg) is given as more than 226%; in the data set with S180 sarcoma cells (12 mg/kg), more than 218%.
Consider `N.N.[Cl][Pt][Cl]` [PDD, Cis-platinum (II) diamine dichloride], for which the anticancer activity entry in data set [3] is “strong anticancer activity against Sarcoma 180 and Leukemia L1210”.
For the compound `NCc1ccc(Cl)cc1.NCc1ccc(Cl)cc1.O=C([O-])C1(C(=O)[O-])CCC1.[Pt+2]` [V/7], the “T/C (%) of ST (ratio of survival time of test and control animals)” value is more than 210% in data set [2] (L1210, 10 mg/kg) and more than 202% in the data set on S180 sarcoma cells (10 mg/kg).
In data set [1], `NCc1ccc(Cl)cc1.NCc1ccc(Cl)cc1.[Cl][Pt][Cl]` [drawing 204] yielded a Solubility of 0.01 mg/mL.
The same measure, in the same setting: as for `NCc1ccc(Cl)c(O)c1.NCc1ccc(Cl)c(O)c1.[I][Pt][I]` [drawing 209], the figure is 0.4 mg/mL; as for `NCc1ccc(Cl)c(O)c1.NCc1ccc(Cl)c(O)c1.[Cl][Pt][Cl]` [drawing 210], 0.9 mg/mL.
On the same count and under the same terms, as for `NCc1ccc(C(=O)O)cc1.NCc1ccc(C(=O)O)cc1.[I][Pt][I]` [drawing 211], the figure is 1.0 mg/mL; as for `NCc1ccc(C(=O)O)cc1.NCc1ccc(C(=O)O)cc1.[Cl][Pt][Cl]` [drawing 212], 2.2 mg/mL.
The same measure, in the same setting: to `NCc1ccco1.NCc1ccco1.[I][Pt][I]` [drawing 213] belongs 0.06 mg/mL; to `NCc1ccco1.NCc1ccco1.[Cl][Pt][Cl]` [drawing 214], 0.16 mg/mL; to `NCc1ccc(CO)o1.NCc1ccc(CO)o1.[I][Pt][I]` [drawing 215], 0.2 mg/mL.
Turning to `NCc1ccc(CO)o1.NCc1ccc(CO)o1.[Cl][Pt][Cl]` [drawing 216], the Solubility in data set [1] stood at 1.1 mg/mL.
On to `NCc1ccc(Cl)cc1.NCc1ccc(Cl)cc1.[Cl][Pt][Cl]` [drawing 224], for which the “T/C (%) of ST (ratio of survival time of test and control animals)” value is on record as more than 197% in data set [2] (L1210, 10 mg/kg) and more than 140% with S180 sarcoma cells (10 mg/kg).
The compound `N.N.O=C1[O][Pt][O]C(=O)C12CCC2` [reference compound] came in with a Solubility in data set [1] of 18.5 mg/mL.
